We go through 25 compounds from US8686048B2, “Immunomodulator and anti-inflammatory compounds” (Rhizen Pharmaceuticals SA, priority 2010, dated 2014).

The target of one series is T1, h-DHODH (Homo sapiens, UniProt Q02127).
T1 construct: endogenous in cells; host or cells: U937 cells (membrane fraction, solubilised with 1% octyl glucoside)
The series is described as follows: Dihydro-orotate dehydrogenase inhibition assay (U937 membrane preparations, DCIP reduction). The note with it: U937 membrane preparation; for inhibition at 0.3 µM: compound tested at 0.3 uM (footnote *). Format: biochemical. As to the method:
Dihydro-Orotate Dehydrogenase Inhibition Assay
Dihydro-orotate dehydrogenase (DHODH) catalyzes the […] of dihydro-orotate to orotate during de novo biosynthesis of pyrimidines Inhibition of DHODH activity in U937 membrane preparations was measured by the dihydro-orotate driven reduction of 2,6 dichloroindophenol (DCIP).
U937 cells were homogenized in 20 mM Tris/HCl (pH 7.2) containing 1 mM EDTA. […] Following washes, the pellet was dissolved in 20 mM Tris/HCl containing 150 mM NaCl, 1 mM EDTA, and 1% octyl glucoside on ice for 1 h. Particulate matter was removed by centrifugation at 100000×g for 1 h at 4° C. […] The mixture was incubated at 37° C. for 4 h before measuring the change in absorbance on a plate reader (BMG Labtech., Germany) at 600 nm. Data were analyzed using GraphPad Prism. IC50 for each compound was determined based on the percent inhibition of dihydro-orotate […].

Another series concerns IL-17. The experiment in a line: Inhibition of IL-17 release from mouse splenocytes (PMA + ionomycin, ELISA). Format: cell-based, Balb/c mice. The note with it: Splenocyte, 10 μM, 3 h. How it is done: 2. Inhibition of IL-17 Release from Mouse Splenocytes:
Splenocytes isolated from Balb/c mice were re-suspended in RPMI medium at a concentration of 1×10^6 cells/ml and seeded in a 6 well plate. Cells were incubated with desired concentrations of the inhibitor for 15 min prior to induction with 10 ng/ml PMA+1 μM ionomycin. After a 3 h incubation, supernatant was collected and analyzed for IL-17 concentration using an ELISA kit. Data were analyzed using GraphPad Prism. IC50 values for each compound were determined based on the percent inhibition due to the test compound compared to the control.

T1 sequence (Q02127 whole entry): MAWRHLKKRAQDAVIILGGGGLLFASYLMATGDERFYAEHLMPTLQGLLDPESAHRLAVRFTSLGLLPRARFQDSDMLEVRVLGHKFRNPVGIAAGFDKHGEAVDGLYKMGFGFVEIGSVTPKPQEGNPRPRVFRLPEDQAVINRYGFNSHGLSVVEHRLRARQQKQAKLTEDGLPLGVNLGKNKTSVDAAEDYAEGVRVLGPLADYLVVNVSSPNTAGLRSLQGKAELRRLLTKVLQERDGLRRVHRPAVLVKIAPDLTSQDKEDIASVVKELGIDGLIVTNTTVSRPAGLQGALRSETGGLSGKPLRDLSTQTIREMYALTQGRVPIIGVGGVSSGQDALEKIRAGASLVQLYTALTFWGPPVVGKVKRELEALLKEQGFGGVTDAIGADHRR

For the compound `O=C(O)c1ccccc1C(=O)Nc1c(F)cc(-c2cccc(OC(F)(F)F)c2)cc1F` [Example 12, 2-[3,5-Difluoro-3′-(trifluoromethoxy)biphenyl-4-ylcarbamoyl]benzoic acid], the melting point – broadly, the temperature of the solid-liquid transition – lay in the range of 148.2 to 151.4 °C. Further, on h-DHODH (1 uM), the “h-DHODH % inhibition 1 uM” value was 64.47%. Further, 205 nM corresponded to half-maximal inhibition against h-DHODH (IC50). For the same compound, the inhibition – broadly, the relative decrease from the control value, in per cent – at 10 µM with IL-17 was found to be 2.96%.

In the case of `O=C(O)c1ccccc1C(=O)Nc1c(F)cc(-c2cccc(OCc3ccccc3)c2)cc1F` [Example 13, 2-[3′-(Benzyloxy)-3,5-difluorobiphenyl-4-ylcarbamoyl]benzoic acid], the melting point was in the range of 140.3 to 143.4 °C. For the same compound, the inhibition at 1 µM on h-DHODH (1 uM) was 76.4%. In addition, on h-DHODH, the IC50 (commonly the point on the concentration scale where inhibition reaches its midpoint) is 150 nM. In the series on IL-17, the inhibition at 10 µM came out at 3.43%.

`CCOc1cccc(-c2cc(F)c(NC(=O)c3ccncc3C(=O)O)c(F)c2)c1` [Example 77, 4-(3′-ethoxy-3,5-difluorobiphenyl-4-ylcarbamoyl)nicotinic acid] yielded a melting point of 219 to 221 °C. At h-DHODH, this compound displayed an inhibition at 0.3 µM of 50.2%. In addition, in the series on IL-17, the inhibition at 10 µM came to 9.25%.

`COc1cccc(-c2cc(F)c(NC(=O)c3cc(Cl)c(Cl)cc3C(=O)O)c(F)c2)c1` [Example 16, 4,5-Dichloro-2-(3,5-difluoro-3′-methoxybiphenyl-4-ylcarbamoyl)benzoic acid] registered a melting point of 158.6 to 162.2 °C. For the same compound, 1 µM produced 28% inhibition against h-DHODH (1 uM). Besides, the inhibition at 10 µM in the series with IL-17 was 12.3%.

In the case of `CCCOc1cccc(-c2ccc(NC(=O)c3ccccc3C(=O)O)c(F)c2)c1` [Example 80, 2-(3-fluoro-3′-propoxybiphenyl-4-ylcarbamoyl)benzoic acid], the melting point lay in the range of 116 to 119 °C. At h-DHODH, this compound had an inhibition at 0.3 µM of 47.6%. In addition, in the series with IL-17, the inhibition at 10 µM worked out at 20.1%.

Compound `O=C(O)c1ccccc1C(=O)Nc1c(F)cc(-c2ccccc2F)cc1Cl` [Example 20, 2-(3-Chloro-2′,5-difluorobiphenyl-4-ylcarbamoyl)benzoic acid] came in with a melting point of 163 to 167 °C. The compound also returned an inhibition at 1 µM against h-DHODH (1 uM) of 55.4%. In addition, the inhibition at 10 µM in the series on IL-17 is 24.3%.

As for `CCOc1cccc(-c2cc(F)c(NC(=O)c3cccc(C)c3C(=O)O)c(F)c2)c1` [Example 74, 2-(3′-ethoxy-3,5-difluorobiphenyl-4-ylcarbamoyl)-6(5)-methylbenzoic acid], the melting point is 138 to 140 °C. In addition, at h-DHODH, the inhibition at 0.3 µM is 7.14%. Also, the inhibition at 10 µM in the series with IL-17 was determined as 13.8%.

Regarding `O=C(O)c1cc(Cl)c(Cl)cc1C(=O)Nc1c(F)cc(-c2ccccc2Cl)cc1F` [Example 30, 4,5-Dichloro-2-(2′-chloro-3,5-difluorobiphenyl-4-ylcarbamoyl)benzoic acid], the melting point is 202 to 205.5 °C. The inhibition at 1 µM at h-DHODH (1 uM) stood at 68%. Moreover, the inhibition at 10 µM in the series on IL-17 is 10.3%.

The compound `O=C(O)c1ccccc1C(=O)Nc1c(F)cc(-c2cccc(OC(F)(F)F)c2)cc1Cl` [Example 39, 2-[3-Chloro-5-fluoro-3′-(trifluoromethoxy)biphenyl-4-ylcarbamoyl]benzoic acid] displayed a melting point of 153 to 156.5 °C. The compound further gave an inhibition at 1 µM against h-DHODH (1 uM) of 74.4%. On h-DHODH, 178 nM corresponded to half-maximal inhibition (IC50). Besides, the inhibition at 10 µM with IL-17 was 5.87%.

Regarding `O=C(O)c1ccccc1C(=O)Nc1ccc(-c2ccccc2F)cc1OC(F)(F)F` [Example 23, 2-[2′-Fluoro-3-(trifluoromethoxy)biphenyl-4-ylcarbamoyl]benzoic acid], the melting point lay within 142.2 to 148.1 °C. On h-DHODH (1 uM), the inhibition at 1 µM came out at 47.2%. The inhibition at 10 µM in the series with IL-17 was found to be 15%.

Regarding `O=C(O)c1nccnc1C(=O)Nc1c(F)cc(-c2cccc(OCc3ccccc3)c2)cc1F` [Example 9, 3-[3′-(Benzyloxy)-3,5-difluorobiphenyl-4-ylcarbamoyl]pyrazine-2-carboxylic acid], the melting point is 142 to 144.5 °C. On h-DHODH (1 uM), the inhibition at 1 µM is 10.3%. The inhibition at 10 µM with IL-17 was found to be 26.9%.

`CCOc1cccc(-c2cc(F)c(NC(=O)c3cc(Cl)c(Cl)cc3C(=O)O)c(F)c2)c1` [Example 17, 4,5-Dichloro-2-(3′-ethoxy-3,5-difluorobiphenyl-4-ylcarbamoyl)benzoic acid] showed a melting point of 190.1 to 192.4 °C. At h-DHODH (1 uM), this compound came in with an inhibition at 1 µM of 50.3%. The inhibition at 10 µM with IL-17 is 11.1%.

Compound `COc1cccc(-c2cc(Cl)c(NC(=O)c3ccccc3C(=O)O)c(Cl)c2)c1` [Example 18, 2-(3,5-Dichloro-3′-methoxybiphenyl-4-ylcarbamoyl)benzoic acid] came in with a melting point of 163 to 168 °C. This compound yielded an inhibition at 1 µM against h-DHODH (1 uM) of 62.2%. This compound also gave an IC50 at h-DHODH of 294 nM. Also, the inhibition at 10 µM in the series with IL-17 stood at 12.1%.

As to `CCc1cccc(-c2ccc(NC(=O)c3ccccc3C(=O)O)cc2)c1` [Example 90, 2-(3′-ethylbiphenyl-4-ylcarbamoyl)benzoic acid], the melting point was 178 to 182 °C. For the same compound, the inhibition at 1 µM against h-DHODH (1 uM) is 29.4%. In the series on IL-17, the inhibition at 10 µM stood at 22.4%.

`CCSc1cccc(-c2ccc(NC(=O)c3ccccc3C(=O)O)cc2F)c1` [Example 82, 2-[3′-(ethylthio)-2-fluorobiphenyl-4-ylcarbamoyl]benzoic acid] displayed a melting point of 74 to 76 °C. This compound came in with an inhibition at 0.3 µM on h-DHODH of 57.9%. Moreover, the inhibition at 10 µM in the series with IL-17 worked out at 17.6%.

`CCOc1cccc(-c2cc(Cl)c(NC(=O)c3ccccc3C(=O)O)c(Cl)c2)c1` [Example 21, 2-(3,5-Dichloro-3′-ethoxybiphenyl-4-ylcarbamoyl)benzoic acid] came in with a melting point of 135.9 to 138.2 °C. The same compound came in with an inhibition at 1 µM against h-DHODH (1 uM) of 56.4%. For the same compound, in the series on IL-17, the inhibition at 10 µM is 17.8%.

The compound `COc1cccc(-c2cc(F)c(NC(=O)c3ccccc3C(=O)O)c(F)c2)c1` [Example 1, 2-(3,5-Difluoro-3′-methoxybiphenyl-4-ylcarbamoyl)benzoic acid] yielded a melting point of 168 to 173 °C. The compound also registered an inhibition at 1 µM against h-DHODH (1 uM) of 53.3%. This compound yielded an IC50 against h-DHODH of 741 nM. The inhibition at 10 µM in the series with IL-17 was determined as 6.13%.

`CCOc1cccc(-c2cc(F)c(NC(=O)c3cc(Cl)c(Cl)cc3C(=O)O)c(Cl)c2)c1` [Example 14, 4,5-Dichloro-2-(3-chloro-3′-ethoxy-5-fluorobiphenyl-4-ylcarbamoyl)benzoic acid] showed a melting point of 260 to 265 °C. In addition, the inhibition at 1 µM on h-DHODH (1 uM) stood at 52.2%. Also, the inhibition at 10 µM in the series on IL-17 is 13.5%.

Consider `O=C(O)c1ccccc1C(=O)Nc1c(F)cc(-c2cccc(OC3CCCC3)c2)cc1F` [Example 41, 2-[3′-(Cyclopentyloxy)-3,5-difluorobiphenyl-4-ylcarbamoyl]benzoic acid], for which the melting point is 153 to 156.5 °C. Also, the inhibition at 1 µM against h-DHODH (1 uM) stood at 72.2%. Besides, the midpoint of inhibition on h-DHODH, the IC50, lay at 83.4 nM. Further, the inhibition at 10 µM in the series with IL-17 came out at 7.16%.

The compound `O=C(O)c1ccccc1C(=O)Nc1c(F)cc(-c2cccc(OC3CC3)c2)cc1F` [Example 73, 2-(3′-cyclopropoxy-3,5-difluorobiphenyl-4-ylcarbamoyl)benzoic acid] had a melting point of 125 to 127 °C. Further, on h-DHODH, the IC50 came to 28 nM and the inhibition at 0.3 µM came to 85%. For the same compound, the inhibition at 10 µM with IL-17 was 7.86%.

The compound `CCCOc1cccc(-c2cc(F)c(NC(=O)c3ccccc3C(=O)O)c(F)c2)c1` [Example 26, 2-(3,5-Difluoro-3′-propoxybiphenyl-4-ylcarbamoyl)benzoic acid] came in with a melting point of 128.6 to 132.1 °C. The compound also showed an inhibition at 1 µM against h-DHODH (1 uM) of 85.3%. Moreover, the IC50 against h-DHODH is 122 nM. In addition, the inhibition at 10 µM with IL-17 amounted to 8.7%.

The compound `CCOc1cccc(-c2cc(F)c(NC(=O)c3ncccc3C(=O)O)c(F)c2)c1` [Example 76, 2-(3′-ethoxy-3,5-difluorobiphenyl-4-ylcarbamoyl)nicotinic acid] registered a melting point of 207 to 210 °C. Further, on h-DHODH, the inhibition at 0.3 µM worked out at 44%. Further, the inhibition at 10 µM in the series with IL-17 worked out at 7.88%.

Regarding `CCOc1cccc(-c2cc(F)c(NC(=O)c3nccnc3C(=O)O)c(F)c2)c1` [Example 7, 3-(3,5-Difluoro-3′-ethoxybiphenyl-4-ylcarbamoyl)pyrazine-2-carboxylic acid], the melting point lay in the range of 133.4 to 137.3 °C. Besides, the inhibition at 1 µM on h-DHODH (1 uM) is 4.53%. Besides, the inhibition at 10 µM with IL-17 came out at 8.58%.

Turning to `COc1cccc(-c2ccc(NC(=O)c3ccccc3C(=O)O)cn2)c1` [Example 3, 2-(6-(3-Methoxyphenyl)pyridin-3-ylcarbamoyl)benzoic acid], the melting point lay in the range of 194 to 199 °C. In addition, the inhibition at 1 µM against h-DHODH (1 uM) is 14.3%. Also, in the series on IL-17, the inhibition at 10 µM worked out at 17.1%.

Compound `COc1cccc(-c2cc(F)c(NC(=O)c3ccccc3S(=O)(=O)O)c(F)c2)c1` [Example 2, 2-(3,5-Difluoro-3′-methoxybiphenyl-4-ylcarbamoyl)benzenesulfonic acid] yielded a melting point of 97 to 102 °C. In addition, on h-DHODH (1 uM), 1 µM produced 12.2% inhibition. For the same compound, in the series with IL-17, the inhibition at 10 µM came to 29.2%.
